Series [1] concerns the target T1, human DOPr (Homo sapiens, UniProt P41143).
T1 construct: expressed in transfected cells; HEK293-Glo20F cells (cAMP)
Nature of the series: biochemical. It counts as binding.

In series [2] the target is T2, human NOPr (Homo sapiens, UniProt P41146).
T2 construct: expressed in transfected cells
Nature of the series: Radioligand competition binding with [3H]-nociceptin. (In general: Loss of bound radioactivity is the signal in a displacement assay; it reports binding, not function.)

For series [3], the target named is T1, human DOPr. The series is described as follows: Glo-sensor cAMP assay. The class given is cell-based. The method, then:
Stimulation by endogenous RF-amide peptides or test compounds for [^35S]-GTPγS binding to membranes from CHO cells expressing human NPFF1R or NPFF2R, were examined as reported. 1.6. Glo-Sensor cAMP Assay cAMP accumulation assay was essentially done as described with the following modifications: HEK293 cells stably expressing cAMP Glosensor-20F were used, with or without additional stable expression of each individual opioid receptor or NPFF1R. The cAMP responses were measured in presence of D-luciferin (1 mM). All peptides and test compounds were incubated in the presence of IBMX for 15 min before inducing cAMP production by forskolin. IBMX and forskolin concentrations were optimized for each receptor cell line: NPFF1R responses were recorded in presence of 0.1 mM IBMX and 0.4 μM forskolin, NPFF2R responses with 0.5 mM IBMX and 0.3 μM forskolin, MOPr responses with 0.5 mM IBMX and 0.125 μM forskolin, DOPr responses with 0.1 mM IBMX and 0.125 μM forskolin; KOPr and NOPr with 0.5 mM IBMX and 1.5 μM forskolin.

In series [4] the target is T3, GPR54 (Homo sapiens, UniProt Q969F8).
T3 construct: expressed in transfected cells; host or cells: CHO cells, membranes
Nature of the series: Radioligand competition binding with [125I]-Kp-10.

Series [5] concerns C57BL/6N mice. The series is described as follows: Respiratory depression by whole body plethysmography. It counts as in vivo. The note with it: acute sc.; KGOP01 1.8, KGFF03 1.2, KGFF09 7.4 μmol/kg; 100 min. Here is the method: Ventilatory parameters were recorded in conscious C57BL/6N mice by whole body barometric plethysmography (Emka Technologies, Paris, France). Mice were acclimatized with the plethysmograph chamber for 30 min until a stable baseline was obtained. Then, the animal was gently removed from the chamber for sc. injection of the tested drug at TO and replaced in the chamber for the remaining measurements. Respiratory frequency (f) was recorded for 100 min and used as the index of respiratory depression.

For series [6], the system named is C57BL/6N mice. Nature of the series: CFA-induced inflammatory pain model. The note with it: for CFA-induced thermal hypersensitivity (basal threshold): daily sc., measured before injection. It counts as in vivo. Here is the method: Tail inflammation in C57BL/6N mice was induced by injecting subcutaneously 20 μl of a Complete Freund's Adjuvant (CFA) solution or saline (control mice) 3 cm from the tip of the tail. Twenty-four hours after CFA injection (day 1), inflammation was confirmed by measuring thermal and mechanical hyperalgesia. Mice were then treated sc. daily for 7 days (from day 1 to day 7) with the test compounds or saline (control). Nociceptive threshold to heat stimulation was measured by tail immersion test (47.5±0.5° C.) and tail pressure test each hour for 5 h after the first drug administration in order to determine the peak of the anti-hyperalgesic response. During the following days, basal nociceptive thresholds were evaluated before injection and 2 h after drug injection. Antinociceptive response was calculated as percent of Maximum Possible Effect (% MPE) according to the formula=[(test latency−CFA/saline mice latency)/(cut-off time−CFA/saline mice latency)]×100. In order to limit behavioral sensitization, thermal nociception was evaluated on days 1-2-4-6 and mechanical nociception on days 1-3-5-7.

Series [7] has as its target NPFF2R (Homo sapiens, UniProt Q9Y5X5). The series is described as follows: [35S]-GTPγS binding assay. It counts as biochemical. Also noted: expressed in transfected cells. Here is the method:
(§1) Stimulation by endogenous RF-amide peptides or test compounds for [^35S]-GTPγS binding to membranes from CHO cells expressing human NPFF1R or NPFF2R, were examined as reported. 1.6. Glo-Sensor cAMP Assay cAMP accumulation assay was essentially done as described with the following modifications: HEK293 cells stably expressing cAMP Glosensor-20F were used, with or without additional stable expression of each individual opioid receptor or NPFF1R. The cAMP responses were measured in presence of D-luciferin (1 mM).
A general note: GTPγS is a poorly hydrolysed GTP analogue; its binding reports G protein activation.

Series [8] addresses human NPFF1R (Homo sapiens, UniProt Q9GZQ6). The series is described as follows: [35S]-GTPγS binding assay. The class given is biochemical. Also noted: expressed in transfected cells. The note with it: for Emax: relative to RFRP3. The method, then:
as §1

Series [9] deals with T4, human MOPr (Homo sapiens, UniProt P35372). The series is described as follows: Radioligand competition binding with [3H]-diprenorphine. Also noted: expressed in transfected cells; HEK293-Glo20F cells (cAMP).
Series [10] addresses T4, human MOPr. Nature of the series: cell-based. The class given is cell-based. The note with it: for MOPr-induced G protein activation: in words; for Emax: read-out: MOPr (cAMP) Emax. Also noted: expressed in transfected cells; HEK293-Glo20F cells (cAMP). Summed up: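 GTPγS binding used membranes of CHO cells expressing NPFF1R or NPFF2R, stimulated by RF-amide peptides or test compounds. cAMP was measured in HEK293 cells stably carrying Glosensor-20F, with or without stable expression of an opioid receptor or NPFF1R, in the presence of 1 mM D-luciferin.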

In series [11] the target is T4, human MOPr. Nature of the series: BRET1 β-arrestin-2 recruitment assay.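 On Emax: Emax relative to maximal DAMGO-induced BRET as 100%.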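 On MOPr (β-arrestin-2) Emax: Emax relative to maximal DAMGO-induced BRET as 100%.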 The note with it: for Emax: read-out: MOPr (β-arrestin-2) Emax. Also noted: expressed in transfected cells; host or cells: HEK293 cells stably expressing eYFP-β-arrestin-2, transiently transfected with the Rluc8-MOP plasmid. The class given is cell-based. In a few lines:
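HEK293 cells stably expressing eYFP-β-arrestin-2 were transfected two days before with Rluc8-tagged MOP receptor. BRET was read at 37 °C with 5 μM coelenterazine H, 5 min after agonist addition.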
In general terms: Bioluminescence resonance energy transfer reports proximity on the nanometre scale.

The mark [12] stands for this setting: Table 3a, HEK293-Glo20F-hMOPr cells, read-out: MOPr (cAMP) EC50.
[13] abbreviates: Table 3a, read-out: MOPr (β-arrestin-2) EC50.
Where [14] appears, read: [125I]-Kp-10, read-out: Ki ± SEM GPR54.

The source of these data is patent US20210002231A1 (Centre National de la Recherche Scientifique, priority 2018, published 2021).

Where two headings read alike, the source gives them in different places. Residues, ends and D or L forms follow the SMILES beside them.
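Wherever MOPr (cAMP) Emax is given: Emax relative to DAMGO as 100%.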

T2 sequence (P41146 whole entry): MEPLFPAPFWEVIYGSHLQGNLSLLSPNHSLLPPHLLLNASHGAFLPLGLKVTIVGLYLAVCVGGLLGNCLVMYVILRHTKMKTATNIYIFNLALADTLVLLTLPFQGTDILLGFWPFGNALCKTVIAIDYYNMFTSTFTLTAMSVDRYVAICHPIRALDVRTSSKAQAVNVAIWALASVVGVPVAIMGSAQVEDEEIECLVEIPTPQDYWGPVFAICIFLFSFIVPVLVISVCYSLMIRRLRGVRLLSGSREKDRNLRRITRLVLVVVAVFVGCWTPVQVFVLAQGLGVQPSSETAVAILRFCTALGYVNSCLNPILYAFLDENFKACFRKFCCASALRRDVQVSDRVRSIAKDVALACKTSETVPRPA
T4 sequence (P35372 whole entry): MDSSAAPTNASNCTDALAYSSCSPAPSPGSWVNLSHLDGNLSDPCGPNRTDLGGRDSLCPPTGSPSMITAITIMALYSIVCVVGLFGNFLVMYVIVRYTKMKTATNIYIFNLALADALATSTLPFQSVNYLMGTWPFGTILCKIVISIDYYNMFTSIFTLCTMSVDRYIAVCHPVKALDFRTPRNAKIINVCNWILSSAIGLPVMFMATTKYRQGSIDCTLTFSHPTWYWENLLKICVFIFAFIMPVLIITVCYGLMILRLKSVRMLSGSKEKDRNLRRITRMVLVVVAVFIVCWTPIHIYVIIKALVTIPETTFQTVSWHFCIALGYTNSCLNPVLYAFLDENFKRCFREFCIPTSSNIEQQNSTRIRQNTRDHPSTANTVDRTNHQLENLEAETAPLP
human NPFF1R, sequence (Q9GZQ6 whole entry): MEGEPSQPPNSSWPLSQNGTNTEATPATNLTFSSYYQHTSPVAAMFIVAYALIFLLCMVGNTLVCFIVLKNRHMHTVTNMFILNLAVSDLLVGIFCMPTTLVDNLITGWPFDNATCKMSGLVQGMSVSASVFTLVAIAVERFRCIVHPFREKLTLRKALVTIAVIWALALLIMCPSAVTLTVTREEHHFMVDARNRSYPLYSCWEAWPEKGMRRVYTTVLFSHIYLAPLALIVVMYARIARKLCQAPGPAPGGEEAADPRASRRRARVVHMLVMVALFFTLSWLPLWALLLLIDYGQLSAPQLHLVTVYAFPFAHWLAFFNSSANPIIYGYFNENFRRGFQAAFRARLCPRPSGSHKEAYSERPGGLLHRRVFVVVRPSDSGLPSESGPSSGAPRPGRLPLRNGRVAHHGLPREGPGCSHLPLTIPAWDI
T3 sequence (Q969F8 whole entry): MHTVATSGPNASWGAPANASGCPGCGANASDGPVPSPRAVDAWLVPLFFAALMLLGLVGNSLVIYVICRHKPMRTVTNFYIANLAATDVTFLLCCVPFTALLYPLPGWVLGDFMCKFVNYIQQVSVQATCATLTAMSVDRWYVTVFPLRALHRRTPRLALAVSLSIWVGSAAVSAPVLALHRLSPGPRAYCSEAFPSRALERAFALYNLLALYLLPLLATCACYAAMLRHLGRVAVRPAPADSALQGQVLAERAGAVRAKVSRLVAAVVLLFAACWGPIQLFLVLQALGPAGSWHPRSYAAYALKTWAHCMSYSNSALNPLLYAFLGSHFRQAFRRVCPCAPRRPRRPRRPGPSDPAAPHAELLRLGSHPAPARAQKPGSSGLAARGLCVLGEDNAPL
NPFF2R, sequence (Q9Y5X5 whole entry): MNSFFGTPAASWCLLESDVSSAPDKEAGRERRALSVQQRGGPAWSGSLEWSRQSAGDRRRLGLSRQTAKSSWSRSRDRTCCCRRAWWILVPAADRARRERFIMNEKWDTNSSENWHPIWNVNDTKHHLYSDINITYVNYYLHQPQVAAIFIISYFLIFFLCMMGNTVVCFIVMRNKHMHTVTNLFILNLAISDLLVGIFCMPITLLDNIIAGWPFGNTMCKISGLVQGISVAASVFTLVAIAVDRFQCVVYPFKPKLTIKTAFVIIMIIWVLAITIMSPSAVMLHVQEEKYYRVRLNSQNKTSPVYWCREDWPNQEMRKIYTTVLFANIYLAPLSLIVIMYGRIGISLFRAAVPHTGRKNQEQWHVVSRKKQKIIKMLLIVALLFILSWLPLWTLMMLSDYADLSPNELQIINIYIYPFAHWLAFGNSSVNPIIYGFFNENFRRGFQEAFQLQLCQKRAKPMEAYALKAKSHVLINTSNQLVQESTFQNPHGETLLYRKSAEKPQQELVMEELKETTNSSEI
T1 sequence (P41143 whole entry): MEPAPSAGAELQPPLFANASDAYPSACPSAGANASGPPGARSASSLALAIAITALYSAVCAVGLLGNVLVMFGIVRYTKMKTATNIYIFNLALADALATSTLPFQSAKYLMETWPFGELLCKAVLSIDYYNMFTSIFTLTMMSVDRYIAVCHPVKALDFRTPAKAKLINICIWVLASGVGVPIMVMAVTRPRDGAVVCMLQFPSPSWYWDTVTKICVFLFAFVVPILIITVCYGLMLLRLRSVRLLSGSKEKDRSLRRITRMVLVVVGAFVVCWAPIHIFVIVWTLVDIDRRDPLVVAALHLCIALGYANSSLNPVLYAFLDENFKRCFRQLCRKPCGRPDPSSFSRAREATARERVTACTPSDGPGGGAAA

In the case of `Cc1cc(O)cc(C)c1C[C@H](N)C(=O)N[C@H](CCCNC(=N)N)C(=O)N[C@H]1Cc2ccccc2CN(CCC(=O)N[C@@H](CCCNC(=N)N)C(=O)N[C@@H](Cc2ccccc2)C(N)=O)C1=O` [KGFF03, H-Dmt-D-Arg-Aba-β-Ala-Arg-Phe-NH2] (HELM PEPTIDE1{[Cc1cc(O)cc(C)c1C[C@H](N)C(=O)[*:2]].[dR].[O=C1[C@@H](N[*:1])Cc2ccccc2CN1CCC(=O)[*:2]].R.F.[am]}$$$$V2.0), the Ki (commonly a dissociation constant, usually derived from enzyme kinetics or from competition with a known ligand) in series [1] came to 9.1 ± 0.7 nM; in series [2], 289 ± 3 nM; in [4] it was 4370 nM; in [9], 0.24 ± 0.03 nM. Also, the EC50 (in general, the concentration needed to bring the measured effect to its halfway point) in series [3] is 0.34 nM; in [10] (setting [12]), 12 ± 2 nM; in series [11] (setting [13]) it was 33.9 ± 8.8 nM. Also, the maximum response (Emax) (commonly the greatest response seen or fitted, relative to the assay's reference) amounted to 89 ± 6% in series [3]; 111 ± 17% in series [7]; 88 ± 7% in series [8]; 92 ± 1% in series [10]; 41 ± 11% in [11]. In addition, the “respiratory depression (respiratory frequency) compared to saline” value (from here on “respiratory depression … compared to saline”) in series [5] was “did not”. In series [6], the “CFA-induced thermal hypersensitivity (basal threshold)” value (“CFA-induced thermal hypersensitivity” below) is “not the case”. The “MOPr-induced G protein activation” value in series [10] was “highly potent and fully efficacious”. The β-arrestin-2 recruitment result in series [11] (in words) is reported as “partial agonism”.

In the case of `Cc1cc(O)cc(C)c1C[C@H](N)C(=O)N[C@H](CCCNC(=N)N)C(=O)N[C@H]1Cc2ccccc2CN(CCC(=O)N[C@@H](CCCN2CCC(Cc3ccccc3)CC2)C(=O)N[C@@H](Cc2ccccc2)C(N)=O)C1=O` [KGFF09, H-Dmt-D-Arg-Aba-β-Ala-Bpa-Phe-NH2], the Ki in [1] came out at 186 ± 77 nM; in series [2] it was 209 ± 2 nM; in [4] (setting [14]), 2000 nM; in series [9], 2.43 ± 0.18 nM. Besides, the EC50 in series [3] was determined as 0.78 nM; in series [10] (Table 3B, read-out: MOPr (cAMP) EC50) it was 18.2 ± 6.1 nM; in series [10] (setting [12]), 18.2 ± 6.1 nM; in series [11] (setting [13]), 56.4 ± 26.5 nM. In addition, the Emax in series [3] was 90 ± 3%; in [7], 38 ± 14%; in series [8] it was 10 ± 2%; in series [10], 85 ± 2%; in series [11], 42 ± 2%. Also, the “respiratory depression … compared to saline” value in series [5] is on record as “did not”. Moreover, in [6], the “CFA-induced thermal hypersensitivity” value is given as “totally reversed after the third injection”. For the same molecule, in series [6] (in words), the “analgesic tolerance after 7 days of chronic administration” value is recorded as “significantly less tolerance”. Moreover, the “MOPr-induced G protein activation” value in [10] is “highly potent and fully efficacious”. Besides, the β-arrestin-2 recruitment result in series [11] (in words) is recorded as “partial agonism”.

As to `Cc1cc(O)cc(C)c1C[C@H](N)C(=O)N[C@H](CCCNC(=N)N)C(=O)N[C@H]1Cc2ccccc2CN(CCC(N)=O)C1=O` [KGOP01, reference compound], the Ki is 5.1 ± 0.5 nM in series [1], over 10000 nM in series [2], over 10000 nM in [4] (setting [14]) and 0.12 ± 0.02 nM in series [9]. Further, the EC50 in [3] was 0.16 ± 0.01 nM; in [7] (membranes from CHO-hNPFF2R cells, read-out: NPFF2R (GTPγS) EC50), over 10000 nM; in series [8] (membranes from CHO-hNPFF1R cells, read-out: NPFF1R (GTPγS) EC50), over 10000 nM; in series [10] (MOPr (cAMP) EC50), 0.204 ± 0.05 nM; in series [11] it was 1.6 ± 0.1 nM. The Emax was found to be 91 ± 2% in [3], 89 ± 2% in [10] and 103 ± 9% in series [11]. For the same molecule, in series [5], the “respiratory depression … compared to saline” value is given as “significant respiratory depression”. The “CFA-induced thermal hypersensitivity” value in series [6] is listed as “not the case”. In [11], the β-arrestin-2 recruitment result is recorded as “full response”.
